Experimental findings from PubChem BioAssay AID179 (DTP/NCI, 2004) are described below.

“And” between values parts separate entries of the source, which are not always exact repeats. Equal entries are not always repeated. The source made the active and inactive calls.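 Rule for the calls: active = compounds giving half or more protection of infected cells from virus-caused growth loss, again on retest; inactive = the rest.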

In this assay the test system is CEM cells HIV-1 protection, formazan growth assay. As to the kind of experiment: NCI AIDS Antiviral Assay. Conditions: for IC50: measured here: growth of uninfected CEM cells. The method, boiled down:
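Screen of anti-HIV-1 activity in human CEM cells using a formazan-based growth measurement at five drug concentrations. Hits with 50% or greater protection were repeated, and confirmation required reproducible complete protection.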

Take `NS(=O)(=O)c1ccc(N2C(=O)C(=O)N(c3ccccc3)C2=S)cc1`: the EC50 (commonly the midpoint of the concentration-response curve) was > 200 µM and the IC50 (in general, the concentration that inhibits the measured activity by half) came out at 19.5 µM. For the compound `Cc1ccc(S(=O)(=O)N2CCN(CCO)CCN(S(=O)(=O)c3ccc(C)cc3)CCN(CCO)CC2)cc1`, the EC50 was > 200 µM and the IC50 came to 34.7 µM. Consider `O=C1NC2OC(CO)C(O)C2O1` (configuration not stated), for which the EC50 is > 200 µM and the IC50 was > 200 µM. `O=C(O)c1ccccc1C(=O)c1ccc(O)cc1`: the EC50 was > 200 µM and the IC50 is > 200 µM. On to `CCOC(=O)C(NO)C(Sc1ccccc1)c1ccc(OC)cc1` (configuration not stated), for which the outcome was inactive. With `Nc1ccccc1C1=Nc2cncnc2NC1`, the EC50 is > 417 µM and the IC50 amounted to 295 µM. Turning to `COc1ccc(-c2sc(/N=C/c3ccc(N(C)CCC#N)cc3)c(C#N)c2C)cc1OC`, the EC50 is > 501 µM and the IC50 was found to be 339 µM. As to `O=C1N(CO)C2C(N1CO)N(CO)C(=O)N2CO` (configuration not stated), the EC50 is > 200 µM; the IC50 was 33.1 µM and 102 µM. For the compound `COC(=O)C1=C(OC(C)=O)c2ccccc2CS1`, the EC50 is > 135 µM and the IC50 was 123 µM.

With `N#Cc1c2ccc([N+](=O)[O-])cc2c(=O)n2c1sc1ccccc12`, the EC50 is > 200 µM and the IC50 turned out to be 10.7 µM. Turning to `COc1ccc2c(-c3ccc(O)cc3)c(Oc3ccccc3)c(=O)oc2c1`, the result was inactive.

In the case of `N#C/C(=C\NC(N)=S)c1nc2ccccc2s1`, the outcome was inactive.

On to `CSc1ccc(C(=O)C(=O)c2ccc(SC)s2)s1`, for which the EC50 was > 200 µM and the IC50 amounted to 155 µM. Taken in the same sequence, the figures for `CCOC1N=C(c2ccccc2)c2cc(Cl)ccc2NC1=O` (configuration not stated) were > 22.9 µM and > 22.9 µM. With `CN(C)Cc1cc(C=O)cc(CN(C)C)c1O`, the EC50 is > 200 µM and the IC50 was > 200 µM.

`Nn1c(CCCCCCCCc2nnc(-c3c(O)ccc4ccccc34)n2N)nnc1-c1c(O)ccc2ccccc12`: the EC50 was > 200 µM and the IC50 is > 200 µM.

As for `COC(=O)OCC1C=CC(n2cnc3c(Cl)nc(N)nc32)CC1` (configuration not stated), the EC50 was > 200 µM and the 50% inhibitory concentration (IC50) worked out at 31.6 µM. The like results for `COc1ccc(-n2c(N)c(C#N)c3c(c2=S)CCC3)cc1` were, in that order, > 316 µM and > 316 µM. As to `COC(=O)/C(=C\C(=O)c1ccc(Br)cc1)NN=C(c1ccccc1)c1ccccc1`, the EC50 is > 200 µM and the IC50 was > 200 µM. With `S=c1nc2sc3c(c2c(Nc2ccccc2)[nH]1)CCCC3`, the EC50 is > 200 µM and the half-maximal inhibitory concentration (IC50) is > 200 µM.

For `N#Cc1c(N2CCN(c3ccc([N+](=O)[O-])cc3)CC2)[n+](=O)c2ccc(Cl)cc2n1[O-]`, the EC50 was > 20 µM and the IC50 was 0.631 µM. As to `CN1CCCC(O)C1CNC12CC3CC(CC(C3)C1)C2` (configuration not stated), the EC50 was > 794 µM and the IC50 is 245 µM. Turning to `O=S(=O)(O)c1cc(N=Nc2ccc(S(=O)(=O)c3ccc(N=Nc4cc(S(=O)(=O)O)c5cccnc5c4O)cc3)cc2)c(O)c2ncccc12`, the EC50 was 6.03 µM and the IC50 came to 39.8 µM. Consider `COc1ccc(NC(=O)c2oc3cc(O)ccc3c(=O)c2C)c([N+](=O)[O-])c1`, for which the EC50 is > 676 µM and the IC50 was found to be 245 µM. `CCCCCCOP(=O)(OCCCCCC)OC(C(=O)OC)C(F)(F)F` (configuration not stated): the EC50 is > 200 µM and the IC50 was determined as 44.7 µM. With `C=CCCCC(C)(C(=O)OC(C)(C)C)C1=NOC(C)(C)C1` (configuration not stated), the EC50 was > 200 µM and the IC50 was > 200 µM.

`COC(=O)C(=O)C(C(=O)OC)C(=O)C(=O)Nc1cc(Cl)c(Cl)cc1Cl` (configuration not stated): the EC50 is > 17.4 µM and the IC50 was > 17.4 µM.

For the compound `COC(=O)C(=O)C(C(=O)C(=O)Nc1ccc(C)cc1C)c1nc2ccc(Cl)cc2[nH]c1=O` (configuration not stated), the EC50 is > 57.5 µM and the IC50 turned out to be 47.9 µM. As to `OCC(O)C(OC1OC(CO)C(O)C(O)C1O)c1nn(-c2ccccc2)c2nc3cc(Cl)ccc3nc12` (configuration not stated), the result was inactive. As to `O=[N+]([O-])c1ccc(N/N=C/c2ccc(OCCCCCCCCCCCO)cc2)c([N+](=O)[O-])c1`, the EC50 was > 200 µM and the IC50 is 42.7 µM. On to `COc1ccccc1OS(=O)(=O)c1ccc(C)cc1`, for which the outcome was inactive. As for `CC1=C(C(=O)Nc2ccccc2C)C(c2ccccc2O)C(C(=O)Nc2ccccc2C)=C(C)N1`, the EC50 was 9.55 µM and the IC50 turned out to be 15.5 µM. The like results for `O=C1C(Br)=C[C@H]2C3C=CC(Br)(C3=O)[C@@H]12` (some centres not stated) were, in that order, > 794 µM and 3.72 µM. Regarding `O=C1C(=O)N(C23CC4CC(CC(C4)C2)C3)C(=S)N1c1ccccc1`, the EC50 is > 200 µM and the IC50 amounted to 110 µM. Taken in the same sequence, the figures for `Cc1cc(C)c(O)c(CN2CCN(C(C)C)CCN(C(C)C)CC2)c1` were > 47.9 µM and 13.8 µM. The like results for `Fc1ccc(C(=NCc2ccccc2)N2CCOCC2)cc1` were, in that order, > 200 µM and > 200 µM. As to `COc1cccc(C2N3CCCCC3[C@@H]3c4[nH]c5ccccc5c4CCN23)c1OC` (some centres not stated), the EC50 was > 33.9 µM and the IC50 was > 33.9 µM. For `Cc1ccc(OCCn2cc(Nc3ccccc3)c(=O)n(CCOc3ccc(C)cc3)c2=O)cc1`, the EC50 is > 200 µM and the IC50 amounted to 174 µM. The like results for `CSCCC(NCc1c(O)ccc2c(-c3ccccc3)cc(=O)oc12)C(=O)O` (configuration not stated) were, in that order, > 200 µM and > 200 µM. As for `OC12CCCCCC1(N1CCOCC1)c1ccccc12` (configuration not stated), the EC50 was > 200 µM and the IC50 was > 200 µM. With `O=c1oc2ccccc2c(O)c1C1c2ccccc2Oc2c1c(=O)oc1ccccc21` (configuration not stated), the outcome was inactive. On to `CN=C(Nc1cccc(C(F)(F)F)c1)SCc1ccc(N=C=S)cc1`, for which the outcome was inactive. `O=C(O)C1=CC=CC(=C(c2ccc(O)c(C(=O)O)c2)c2ccc(O)c(C(=O)O)c2)C1=O`: the EC50 was > 380 µM and the IC50 is > 380 µM. As for `CC(=O)/C(C)=N/NC(=O)c1ccccc1O`, the EC50 was > 4.79 µM and the IC50 is > 4.79 µM. In the case of `Cc1cc(NS(=O)(=O)c2ccc(NC(=O)c3cccc4c(Nc5ccc(S(=O)(=O)Nc6cc(C)on6)cc5)c5ccccc5nc34)cc2)no1`, the EC50 was > 36.3 µM and the IC50 was > 36.3 µM.

In the case of `NC(N)=NNCCOc1c(Cl)cccc1Cl`, the EC50 is > 200 µM and the IC50 worked out at 91.2 µM. As for `OC12COc3ccccc3C1Oc1ccccc1C2` (configuration not stated), the outcome was inactive.

Regarding `O=C(c1ccccc1)N(CCCCNC(=O)C(F)(F)F)CCCNC(=O)C(F)(F)F`, the EC50 is > 200 µM and the IC50 is > 200 µM. Turning to `O=C1C2N=NNC2C(=O)N1c1ccccc1` (configuration not stated), the EC50 was > 200 µM and the IC50 is > 200 µM. For `C=CC1(C)CC(=O)C2(O)C(O1)C(OC(C)=O)C(OC(C)=O)C1C2C(OC(C)=O)CCC1(C)C` (configuration not stated), the EC50 is > 26.9 µM and the IC50 was > 26.9 µM.

Consider `O=C(Nn1cnn2c(=O)c3ccccc3nc2c1=O)c1ccccc1`, for which the EC50 is > 200 µM and the IC50 is > 200 µM. On to `Cc1ccnc(NC(=S)Nc2ccccc2Cl)c1`, for which the EC50 was > 200 µM and the IC50 was > 200 µM. With `CSc1ccc(NC(=O)C2c3[nH]c4ccccc4c3C3CCC(C(C)(C)C)CC3C2C(=O)O)cc1` (configuration not stated), the EC50 is > 7.76 µM and the IC50 is > 7.76 µM. For `CN(C)c1ccc(/C=C(\C#N)C(=O)c2ccccc2)cc1Br`, the EC50 was > 14.8 µM and the IC50 is > 14.8 µM. On to `[N-]=[N+]=Nc1c(Cl)c(=O)n(-c2ccccc2)c2ccccc12`, for which the EC50 was > 200 µM and the IC50 is 29.5 µM. The like results for `C[C@@]1(CO[N+](=O)[O-])OC(=O)N2CCC[C@H]21` were, in that order, > 1150 µM and > 1150 µM. Taken in the same sequence, the figures for `CC(=O)C1N=Nc2nc3c(=O)n(C)c(=O)n(C)c3n2C1=O` (configuration not stated) were > 200 µM and > 200 µM. As to `CC(=O)OCC(C)C1=C(O)C(=O)C2(C)C/C=C(/C)CC/C=C(\C)CCC(O)C(C)CCC12` (configuration not stated), the EC50 is > 200 µM and the IC50 turned out to be 11.5 µM.

On to `CCCN1CC=C(c2cc(C(=O)OCC)[nH]c2-c2cc(C)no2)C1=O`, for which the EC50 was > 200 µM and the IC50 is 107 µM.

As for `CCOC(=O)c1cc(C(=O)c2ccccc2)n2nc(-c3ccc(Cl)cc3)ccc12`, the EC50 is > 50.1 µM and the IC50 was > 50.1 µM.

For `O=c1[nH]c(=O)n(C2OC(CO)CC2F)cc1Cl` (configuration not stated), the EC50 is > 186 µM and the IC50 is > 186 µM. As to `O=[N+]([O-])c1ccc(-c2cnc3ccccn23)cc1`, the EC50 is > 105 µM and the IC50 is > 105 µM.

`N#Cc1nc(/C=C/c2ccccc2)oc1N`: the EC50 is > 501 µM and the IC50 stood at 112 µM.

For the compound `COC(=O)[C@H](Cc1ccccc1)NP(=O)(OC)OCC1OC(n2cc(C)c(=O)[nH]c2=O)CC1N=[N+]=[N-]` (some centres not stated), the EC50 is 83.2 µM and the IC50 was > 200 µM.

Take `CCCN(CCCCC(NC(C)=O)C(=O)NCc1ccccc1)C(=O)N(C)N=O` (configuration not stated): the EC50 was > 89.1 µM and the IC50 was > 89.1 µM. `O=C(O)c1ccc2nc(-c3ccccn3)c(-c3ccccn3)nc2c1`: the EC50 is > 200 µM and the IC50 is > 200 µM. `O=c1ccc(=O)c2c1c1[nH]c3ccccc3c1c1c(=O)c3ccccc3c(=O)c21`: the EC50 is > 200 µM and the IC50 worked out at 18.6 µM. As to `CCc1c(O)sc2c(c1=O)C(=NCC(C)C)CC(C)(C)N2`, the EC50 was > 32.4 µM and the IC50 is > 32.4 µM.

Turning to `CC(C)C(=Nc1ccc(Cl)c(Cl)c1)N(C)C`, the EC50 was > 200 µM and the IC50 is > 100 µM. The like results for `NC(=O)C(N)C(F)c1ccccc1` (configuration not stated) were, in that order, > 200 µM and > 200 µM.

As to `Cc1cn(C2CCC(=O)C2)c(=O)[nH]c1=O` (configuration not stated), the result was inactive. On to `CCOC(=O)c1ccc(N2CN3c4ccccc4CCC3C2c2c[nH]c(=O)[nH]c2=O)cc1` (configuration not stated), for which the EC50 was > 69.2 µM and the IC50 was > 69.2 µM. Turning to `CCOC(=O)C[N+]1(C)C2CCC1CC(O)C2` (configuration not stated), the EC50 is > 200 µM and the IC50 was > 200 µM.
